Measured values as given in article PMC12845261, “Design, Synthesis, and Biological Evaluation of N-Acyl-Hydrazone-Linked Quinazolinone Derivatives with Antioxidant, Antimicrobial, and Anticancer Potential” (Pharmaceuticals, 2025).
“And” between values parts separate entries of the source, which are not always exact repeats. Identical values can stand only once. Like-named read-outs stand apart in the source and are kept apart here.

Assays:
[1] = tested on: E. coli ATCC 25922; assay: Microbicidal activity (MMC); format: cell-based; settings: DMSO control 5
Procedure: For the evaluation of antimicrobial activity, the following reference strains were used: S. aureus ATCC 25923, E. faecalis ATCC 29212, E. coli ATCC 25922, P. aeruginosa ATCC 27853 and C. albicans ATCC 10231. To determine the MMCs, 5 μL of culture was taken from each well and distributed on solid medium. The plates were incubated for 20–24 h at 37 °C. The lowest concentration at which no microbial growth was observed was considered MMC.

[2] = Qualitative solubility in solvents; format: physicochemical
Procedure: The 2–5 mL reaction vials were loaded with a magnetic stirrer, 1 mmol of each reactant, acetohydrazide 2 and benzaldehydes, 4–4.5 mL of anhydrous ethanol and 2 drops of glacial acetic acid. Reaction conditions included 5 min of pre-stirring, followed by 40 min of irradiation at 100 °C, with the absorbance level set to “high”. The vials were left overnight in a refrigerator. The precipitates formed were filtered under vacuum, washed with cold ethanol and dried at room temperature. Thin-layer chromatography was performed to analyze and monitor the reaction. The compounds were confirmed by spectroscopic methods (FT-IR, ^1H-NMR and ^13C-NMR spectroscopy and mass spectrometry) and characterized by melting points, solubility and retention factors (Rf).

[3] = Total antioxidant capacity (TAC), DPPH method; settings: 30 min, 517 nm, compound stock 1 mg/mL in methanol, reference ascorbic acid TAC = 100%
Procedure: The total antioxidant capacity (TAC) was evaluated using diphenyl-1-picrylhydrazyl free radical (DPPH) method. The TAC value was determined in relation to the antioxidant capacity of the reference (ascorbic acid, TAC = 100%). […] The maximum value was recorded for 1c (~45%), followed by 1f and 1a (~43%), while the minimum for 1e (~19%).
In this study, the TAC values were obtained using the most-known DPPH method, in which the intense violet colour of the free radical solution is decreasing. Stock solutions of compounds 1a–1f and 2 were prepared in absolute methanol at a concentration of 1 mg/mL. A stock solution of 2,2-diphenyl-1-picrylhydrazyl free radical was obtained in the same solvent, at a concentration of 2 × 10^−4 M. To 1.8 mL of DPPH solution was added 0.2 mL of each solution of the compounds 1a–1f and 2 and the mixture was left in the dark for 30 min, followed by measurements of the absorbance at 517 nm. The following equation was used to calculate TAC: TAC%=Abs0 min−Abs30 min/Abs0min·100 where Abs0 min refers to the initial absorbance of the DPPH free radical solution, and Abs 30 min refers to the absorbance of the solution of DPPH and the added compound after 30 min. Ascorbic acid was used as a reference.

[4] = tested on: A431 (human epidermoid carcinoma); assay: Cytotoxicity, MTT assay; format: cell-based; settings: for Cytotoxic effect (in words): 3.125 to 50 µM; for Cytotoxic effect (in words) / Cell viability / viability at 50 µM: 24 h; for viability at 50 µM / IC50: Homo sapiens; for viability at 50 µM: A-431, 50 µM, compared to the control, read-out: Cell viability; for IC50: A-431, 24 h, tested range 3.125 to 50 µM
Procedure: (§1) For the cytotoxicity screening of the N-acyl-hydrazone derivatives, three cell lines were employed: HT-29 (human colorectal adenocarcinoma), A431 (human epidermoid carcinoma), and VERO (non-tumoral African green monkey kidney epithelial cells). All cell lines were obtained from the American Type Culture Collection (ATCC, Manassas, VA, USA), and maintained in appropriate culture media as follows: HT-29 and A431 cells were cultured in Dulbecco’s Modified Eagle Medium (DMEM), while VERO cells were cultured in Minimum Essential Medium (MEM). Both culture media were supplemented with 10% fetal bovine serum (FBS) and 1% penicillin-streptomycin mix, to formulate the complete culture medium. All cell lines were incubated at 37 °C in a humidified atmosphere containing 5% CO2. […] For the cytotoxicity screening, cells were seeded into sterile 96-well plates at an initial density of 1 × 10^4 cells/well and allowed to adhere for 24 h. Subsequently, cells were treated with increasing concentrations (3.125 to 50 µM) of compounds 1a–1f and 2 for 24 h. In parallel, 5-fluorouracil (5-FU, Sigma Aldrich, St. Louis, MO, USA) was included as a reference drug and tested over the same concentration range under identical experimental conditions. […] For the experimental control, culture medium was refreshed at the time of treatment application. […] Louis, MO, USA). Briefly, the culture media were discarded from each well and replaced with a fresh solution of MTT (1 mg/mL). Plates were incubated for 4 h at 37 °C, and the resulting formazan crystals were solubilized with isopropanol. The absorbance was measured at 550 nm using the FlexStation III multimodal reader (Molecular Devices, San Jose, CA, USA). All experiments were performed in triplicate and repeated in three independent assays. Cell viability was calculated as a percentage relative to the untreated control using the formula Cell Viability (%) = (Abs treated/Abs control) × 100. Data were processed using GraphPad Prism 6.0 and presented as mean ± standard deviation (SD). Statistical analysis was performed using one-way analysis of variance (ANOVA) followed by Dunnett’s post hoc test for comparison with the untreated control group.

[5] = tested on: HT-29 (human colorectal adenocarcinoma); assay: Cytotoxicity, MTT assay; format: cell-based; settings: 24 h; for Cytotoxic effect (in words): 3.125 to 50 µM; for Cell viability: at corresponding concentrations (comparison with 5-FU), concentration not named; for IC50: tested range 3.125 to 50 µM; for Reduction of cell viability: at 50 µM and 25 µM, compared to the control
Procedure: as §1

[6] = tested on: VERO (non-tumoral African green monkey kidney epithelial cells); assay: Cytotoxicity, MTT assay; format: cell-based; settings: 24 h; for Cytotoxic effect on normal cells (in words): 3.125 to 50 µM
Procedure: as §1

[7] = tested on: Artemia franciscana; assay: Artemia franciscana toxicity assay (nauplii lethality); settings: from LC50 at 48 h, standard aquatic toxicity classifications [53]
Procedure: (§2) The brine shrimp cysts (Artemia franciscana) were sourced from Great Salt Lake (USA) through Ocean Star International (Burlingame, CA, USA) via S.K. Trading (Bangkok, Thailand), which carried out the repackaging. Artificial seawater was prepared by dissolving a CoralMarine salt mixture (Grotech) in distilled water to achieve a concentration of about 30 g/L. The cysts were placed in artificial seawater at 25 °C under vigorous aeration. They were allowed to hatch 48 h before the onset of the test, the brine shrimp nauplii stage being selected for the toxicity assay.
(§3) The analyzed compounds were dissolved in 100 μL DMSO and then suspended in seawater to a final volume of 10 mL. The starting concentration was 1000 μM, followed by binary dilutions with seawater: 500 μM, 250 μM, 125 μM and 62.5 μM. A blank solution of 100 μL DMSO and seawater up to 10 mL was also prepared. 24 well-plates (6 × 4) were used and the assay was conducted in triplicate for each concentration and the blank solution. 15 ± 3 nauplii were added to each well, and the plates were placed into the dark. The viability of the nauplii was monitored at 24 and 48 h.
(§4) The LC50 was estimated by interpolation using RStudio 2025.09.2 [84, 85], the drc package. Several non-linear regression models were applied: generalized log logistic regressions (LL.2, LL2.2, LL.4, LL.5) and Weibull functions (W1.2, W1.3, W2.2, W2.3).

[8] = as above; settings: Artemia franciscana (brine shrimp) nauplii, in vivo
Procedure: as §2, §3, §4

[9] = at lower concentrations (below 50 µM)

SMILES: COc1ccc(O)c(/C=N/NC(=O)Cn2c(C)nc3ccccc3c2=O)c1 [Compound 1e, N′-[(E)-(2-hydroxy-5-methoxyphenyl)methylidene]-2-(2-methyl-4-oxoquinazolin-3(4H)-yl)acetohydrazide]
- MMC [1]: 5 mg/mL
- Solubility ([2]; DMF): soluble
- Solubility ([2]; DMSO): soluble
- Solubility ([2]; methanol): slightly soluble
- Solubility ([2]; water): insoluble
- TAC (%) [3]: 19.3%
- Cytotoxic effect (in words) [4]: only mild cytotoxicity
- Cell viability ([4]; at all doses (3.125 to 50 µM)): above 70%
- Cytotoxic effect (in words) [5]: weaker cytotoxic activity
- Cytotoxic effect on normal cells (in words) [6]: strong cytotoxic effects

SMILES: Cc1nc2ccccc2c(=O)n1CC(=O)N/N=C/c1cc(Br)ccc1O [Compound 1a, N′-[(E)-(5-bromo-2-hydroxyphenyl)methylidene]-2-(2-methyl-4-oxoquinazolin-3(4H)-yl)acetohydrazide]
- Solubility ([2]; DMF): soluble
- Solubility ([2]; DMSO): soluble
- Solubility ([2]; acetone): soluble
- Solubility ([2]; methanol): slightly soluble
- Solubility ([2]; water): insoluble
- TAC (%) [3]: 42.7%
- viability at 50 µM [4]: ~60%
- Cell viability [5]: below 50%
- viability at 50 µM ([5]; Homo sapiens, 50 µM, relative to untreated control, read-out: Cell viability): ~50%
- IC50 ([5]; Homo sapiens, read-out: IC50): ~50 µM

SMILES: COc1cccc(/C=N/NC(=O)Cn2c(C)nc3ccccc3c2=O)c1O [Compound 1c, N′-[(E)-(2-hydroxy-3-methoxyphenyl)methylidene]-2-(2-methyl-4-oxoquinazolin-3(4H)-yl)acetohydrazide]
- MMC [1]: 5 mg/mL
- Solubility ([2]; DMF): soluble
- Solubility ([2]; DMSO): soluble
- Solubility ([2]; acetone): soluble
- Solubility ([2]; methanol): slightly soluble
- Solubility ([2]; water): insoluble
- TAC (%) [3]: 45.1%
- viability at 50 µM [4]: ~50%
- IC50 [4]: ~50 µM
- Cytotoxic effect (in words) [5]: potent inhibitory effects at all concentrations tested
- IC50 [5]: did not produce a viability drop sufficient to determine an IC50 value

SMILES: COc1ccc(/C=N/NC(=O)Cn2c(C)nc3ccccc3c2=O)c(O)c1 [Compound 1d, N′-[(E)-(2-hydroxy-4-methoxyphenyl)methylidene]-2-(2-methyl-4-oxoquinazolin-3(4H)-yl)acetohydrazide]
- MMC [1]: 5 mg/mL
- Solubility ([2]; DMF): soluble
- Solubility ([2]; DMSO): soluble
- Solubility ([2]; acetone): soluble
- Solubility ([2]; methanol): slightly soluble
- Solubility ([2]; water): insoluble
- TAC (%) [3]: 19.3% and 20.5%
- Cell viability ([4]; at 50 µM and 25 µM): below 60%
- Cell viability [5]: below 50%
- Reduction of cell viability [5]: approximately 50%
- Effect on cell viability (in words) ([6]; at 50 µM, compared to the untreated control): statistically significant decrease in viability
- Effect on cell viability (in words) [6, 9]: statistically significant increase in cell viability

SMILES: Cc1nc2ccccc2c(=O)n1CC(=O)NN [Compound 2, 2-(2-methyl-4-oxoquinazolin-3(4H)-yl)acetohydrazide]
- Toxicity class [7]: moderate toxicity
- LC50 at 48 h [8]: 335 µM and 77.2 µg/mL
- TAC (%) [3]: 19.7%
- Cytotoxic effect (in words) [4]: no cytotoxic activity
- Cytotoxic effect (in words) [5]: overall increase in cell viability at all tested concentrations
- Cytotoxic effect on normal cells (in words) [6]: well tolerated

SMILES: COc1cc(/C=N/NC(=O)Cn2c(C)nc3ccccc3c2=O)cc([N+](=O)[O-])c1O [Compound 1f, N′-[(E)-(4-hydroxy-3-methoxy-5-nitrophenyl)methylidene]-2-(2-methyl-4-oxoquinazolin-3(4H)-yl)acetohydrazide]
- Solubility ([2]; DMF): soluble
- Solubility ([2]; DMSO): soluble
- Solubility ([2]; acetone): soluble
- Solubility ([2]; methanol): slightly soluble
- Solubility ([2]; water): insoluble
- TAC (%) [3]: 43.4%
- Cytotoxic effect (in words) [4]: did not exert any inhibitory effect
- Cytotoxic effect (in words) [5]: no inhibitory effect
- Cytotoxic effect on normal cells (in words) [6]: well tolerated

SMILES: Cc1nc2ccccc2c(=O)n1CC(=O)N/N=C/c1cc(Br)cc(Br)c1O [Compound 1b, N′-[(E)-(3,5-bromo-2-hydroxyphenyl)methylidene]-2-(2-methyl-4-oxoquinazolin-3(4H)-yl)acetohydrazide]
- Solubility ([2]; 2-propanol): slightly soluble
- Solubility ([2]; DMF): soluble
- Solubility ([2]; DMSO): soluble
- Solubility ([2]; acetone): soluble
- Solubility ([2]; methanol): slightly soluble
- Solubility ([2]; water): insoluble
- TAC (%) [3]: 38.9%
- viability at 50 µM [4]: ~50%
- IC50 [4]: ~50 µM
- Cell viability [5]: below 50%
- Reduction of cell viability [5]: approximately 50%
- Effect on cell viability (in words) [6, 9]: statistically significant increase in cell viability
